# Target: T1, Gamma-aminobutyric acid receptor subunit alpha-1/beta-2/gamma-2 (Homo sapiens, UniProt P14867+P18507+P47870)
# T1 sequence (P14867 whole entry): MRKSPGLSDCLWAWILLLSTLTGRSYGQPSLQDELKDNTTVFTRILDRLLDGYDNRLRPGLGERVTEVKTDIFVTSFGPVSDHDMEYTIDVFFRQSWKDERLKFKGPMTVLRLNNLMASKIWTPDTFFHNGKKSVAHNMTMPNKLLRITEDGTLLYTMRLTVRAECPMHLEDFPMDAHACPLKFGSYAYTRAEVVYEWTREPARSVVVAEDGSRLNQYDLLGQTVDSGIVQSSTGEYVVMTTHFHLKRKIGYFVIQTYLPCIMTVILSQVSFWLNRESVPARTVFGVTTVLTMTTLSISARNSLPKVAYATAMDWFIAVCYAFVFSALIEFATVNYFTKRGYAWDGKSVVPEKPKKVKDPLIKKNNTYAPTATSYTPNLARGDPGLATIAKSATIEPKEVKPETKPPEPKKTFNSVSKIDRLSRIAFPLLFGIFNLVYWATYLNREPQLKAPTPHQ
# T1 sequence (P18507 whole entry): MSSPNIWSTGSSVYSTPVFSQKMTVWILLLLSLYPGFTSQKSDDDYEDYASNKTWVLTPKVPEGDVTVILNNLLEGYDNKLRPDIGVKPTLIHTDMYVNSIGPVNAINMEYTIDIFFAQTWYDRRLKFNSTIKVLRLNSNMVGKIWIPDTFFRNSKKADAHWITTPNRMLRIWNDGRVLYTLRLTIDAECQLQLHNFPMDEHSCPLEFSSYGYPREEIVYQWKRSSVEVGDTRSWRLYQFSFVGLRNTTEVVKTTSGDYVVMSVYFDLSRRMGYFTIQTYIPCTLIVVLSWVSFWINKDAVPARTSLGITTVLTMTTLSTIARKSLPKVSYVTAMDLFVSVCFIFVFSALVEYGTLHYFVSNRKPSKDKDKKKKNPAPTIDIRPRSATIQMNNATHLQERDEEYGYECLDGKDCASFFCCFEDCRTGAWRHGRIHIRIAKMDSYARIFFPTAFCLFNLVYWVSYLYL
# T1 sequence (P47870 whole entry): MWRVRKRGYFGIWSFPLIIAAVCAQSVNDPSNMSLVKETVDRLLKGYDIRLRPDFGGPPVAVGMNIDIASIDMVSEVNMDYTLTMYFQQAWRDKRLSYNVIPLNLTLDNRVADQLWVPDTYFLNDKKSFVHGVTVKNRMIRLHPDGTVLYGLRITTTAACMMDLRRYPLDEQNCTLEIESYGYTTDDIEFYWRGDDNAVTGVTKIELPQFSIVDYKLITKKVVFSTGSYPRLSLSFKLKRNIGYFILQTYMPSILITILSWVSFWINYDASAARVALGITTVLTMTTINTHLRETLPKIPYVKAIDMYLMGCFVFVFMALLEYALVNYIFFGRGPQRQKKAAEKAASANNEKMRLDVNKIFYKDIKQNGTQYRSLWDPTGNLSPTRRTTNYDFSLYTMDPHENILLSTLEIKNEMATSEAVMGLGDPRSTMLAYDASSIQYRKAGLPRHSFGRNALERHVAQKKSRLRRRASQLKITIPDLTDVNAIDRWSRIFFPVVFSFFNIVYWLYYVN
# Assay: Positive allosteric modulation of human GABAA receptor alpha1beta2gamma2L expressed in Xenopus laevis oocytes assessed as potentiation of GABA-induced current by measuring GABA EC50 at 1.4 uM incubated for 15 to 25 secs by two-electrode voltage clamp assay (Rvb = […])
row,SMILES,EC50 [nM]
1,CC(=O)[C@H]1CC[C@H]2[C@@H]3CC[C@H]4C[C@H](O)CC[C@]4(C)[C@H]3[C@@H](OC(=O)c3c(F)c(F)c(N=[N+]=[N-])c(F)c3F)C[C@]12C,70
2,CC(=O)[C@H]1CC[C@H]2[C@@H]3CC[C@H]4C[C@H](O)CC[C@]4(C)[C@H]3C3(C[C@]12C)N=N3,1230

# From BindingDB's records for doi:10.1016/j.ejmech.2017.04.043 (University of Illinois At Chicago, 2017)
